The results in this text go back to ChEMBL document CHEMBL1125576, “alpha-Keto amide inhibitors of aminopeptidases” (J Med Chem, 1992).

The target of experiment [1] is Aminopeptidase B (Homo sapiens, UniProt Q9H4A4). The experiment in a line: Compound was tested for binding affinity towards arginyl aminopeptidase.
The target in experiment [2] is T1, Aminopeptidase N (Homo sapiens, UniProt P15144). The experiment in a line: Compound was tested for binding affinity towards microsomal aminopeptidase; Kii was reported.
T1 sequence (P15144 whole entry): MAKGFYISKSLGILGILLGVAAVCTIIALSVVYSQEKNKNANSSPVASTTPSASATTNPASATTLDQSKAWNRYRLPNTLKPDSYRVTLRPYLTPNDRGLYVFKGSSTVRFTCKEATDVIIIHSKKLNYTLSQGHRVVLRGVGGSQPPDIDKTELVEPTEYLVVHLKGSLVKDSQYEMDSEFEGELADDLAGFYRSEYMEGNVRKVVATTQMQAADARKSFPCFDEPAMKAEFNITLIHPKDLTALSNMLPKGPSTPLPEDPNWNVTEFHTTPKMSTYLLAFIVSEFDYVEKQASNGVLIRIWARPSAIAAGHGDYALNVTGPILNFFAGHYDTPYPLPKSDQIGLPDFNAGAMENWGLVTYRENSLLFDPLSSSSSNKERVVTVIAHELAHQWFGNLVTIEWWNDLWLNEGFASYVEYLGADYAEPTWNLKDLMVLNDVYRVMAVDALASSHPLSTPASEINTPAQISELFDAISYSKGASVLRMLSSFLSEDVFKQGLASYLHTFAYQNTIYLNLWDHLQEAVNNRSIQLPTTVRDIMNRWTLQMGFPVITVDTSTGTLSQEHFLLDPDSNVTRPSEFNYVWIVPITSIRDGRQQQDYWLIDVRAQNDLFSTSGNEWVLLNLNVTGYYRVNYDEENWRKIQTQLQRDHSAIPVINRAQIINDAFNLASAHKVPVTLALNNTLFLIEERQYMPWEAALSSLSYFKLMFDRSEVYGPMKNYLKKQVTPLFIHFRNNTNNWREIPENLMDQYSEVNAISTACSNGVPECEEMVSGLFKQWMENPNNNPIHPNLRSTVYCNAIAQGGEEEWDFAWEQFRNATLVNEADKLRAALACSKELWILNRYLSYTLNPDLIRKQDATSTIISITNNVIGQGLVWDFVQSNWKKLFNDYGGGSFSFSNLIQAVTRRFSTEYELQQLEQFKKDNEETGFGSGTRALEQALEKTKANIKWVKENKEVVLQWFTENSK
Experiment [3] addresses T1, Aminopeptidase N. The experiment in a line: Compound was tested for binding affinity towards microsomal aminopeptidase; Kis was reported.
Experiment [4] addresses T1, Aminopeptidase N. The experiment in a line: Compound was tested for binding affinity towards microsomal aminopeptidase.

Structures are written as SMILES. A value given as a limit tells only on which side of the number the result lay.

Chain of Aminopeptidase B (Q9H4A4 whole entry): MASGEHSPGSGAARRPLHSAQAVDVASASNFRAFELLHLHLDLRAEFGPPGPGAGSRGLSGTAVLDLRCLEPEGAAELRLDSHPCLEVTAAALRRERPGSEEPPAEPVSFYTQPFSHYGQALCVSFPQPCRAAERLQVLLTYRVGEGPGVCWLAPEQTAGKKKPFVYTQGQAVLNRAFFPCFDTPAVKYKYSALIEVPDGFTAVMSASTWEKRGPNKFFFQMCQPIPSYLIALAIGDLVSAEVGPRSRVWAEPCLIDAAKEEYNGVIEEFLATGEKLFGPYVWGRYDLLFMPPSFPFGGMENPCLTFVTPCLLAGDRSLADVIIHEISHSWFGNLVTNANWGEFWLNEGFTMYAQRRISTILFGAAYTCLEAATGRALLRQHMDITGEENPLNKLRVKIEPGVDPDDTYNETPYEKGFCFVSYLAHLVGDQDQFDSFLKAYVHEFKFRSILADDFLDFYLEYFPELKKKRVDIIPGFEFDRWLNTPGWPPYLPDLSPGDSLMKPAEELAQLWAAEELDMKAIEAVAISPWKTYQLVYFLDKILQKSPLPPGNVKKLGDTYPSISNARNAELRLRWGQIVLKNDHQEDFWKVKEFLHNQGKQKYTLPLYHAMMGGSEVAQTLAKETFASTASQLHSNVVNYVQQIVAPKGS

One may read the Ki as a measure of affinity in units of concentration, obtained from inhibition or displacement. Low values mean tighter binding, high ones weaker binding. As for `CC(C)C[C@H](N)C(=O)CC(Cc1ccccc1)C(=O)O` (stereo partly drawn), the inhibition constant Ki worked out at 0.17 µM in experiment [1], 260 µM in experiment [2] and 79 µM in experiment [3].
For `CC(C)CCNC(=O)C(=O)[C@H](N)CC(C)C`, the inhibition constant Ki was determined as 6.5 µM in experiment [1] and 18 µM in experiment [4].
Turning to `CC(C)CCNC(=O)C(=O)[C@@H](N)CC(C)C`, the Ki in experiment [1] is 3.2 µM; in experiment [4] it was 10.5 µM.
In the same order, the values of `CC(C)CCNC(=O)[C@@H](O)[C@H](N)CC(C)C` are more than 300 µM and 24 µM.
In the same order, the values of `CC(C)CCNC(=O)C(=O)C(N)Cc1ccccc1` (stereo not drawn) are 1.5 µM and 2.5 µM.
Regarding `CC(C)CCNC(=O)[C@@H](O)[C@H](N)Cc1ccccc1`, the Ki in experiment [1] worked out at 39 µM; in experiment [4] it was 20 µM.
On to `CC(C)C[C@H](N)C(=O)CC(C)C(=O)O` (stereo partly drawn), for which the inhibition constant Ki in experiment [1] worked out at 130 µM; in experiment [2], 940 µM; in experiment [3], 660 µM.
As to `CC(=O)[C@@H](N)CC(C)C`, the values for the Ki in experiment [1] and in experiment [4] were more than 1000 µM and 430 µM, respectively.
